Test results from ChEMBL document CHEMBL5230136, “A review: Biologically active 3,4-heterocycle-fused coumarins” (Eur J Med Chem, 2021).
≈ marks a conversion by molar mass, not a printed value.

How the values were obtained:
[1] = Antioxidant activity assessed as DPPH radical scavenging activity; format: functional
[2] = test system: Aspergillus ochraceus; assay: Antifungal activity against Aspergillus ochraceus assessed as zone of inhibition; format: functional
[3] = test system: Penicillium chrysogenum; assay: Antifungal activity against Penicillium chrysogenum assessed as zone of inhibition; format: functional
[4] = test system: Proteus mirabilis; assay: Antibacterial activity against Proteus mirabilis assessed as zone of inhibition; format: functional
[5] = test system: Staphylococcus aureus; assay: Antibacterial activity against Staphylococcus aureus assessed as zone of inhibition; format: functional
[6] = test system: Bacillus cereus; assay: Antibacterial activity against Bacillus cereus assessed as zone of inhibition; format: functional
[7] = test system: Serratia marcescens; assay: Antibacterial activity against Serratia marcescens assessed as zone of inhibition; format: functional
[8] = molecular target: Dopamine receptors; D2 & D4 (Homo sapiens, UniProt P14416+P21917); assay: Binding affinity to human D2/D4 receptor assessed as inhibition constant; format: protein assay
[9] = test system: Xanthomonas citri pv. malvacearum; assay: Antibacterial activity against Xanthomonas citri pv. malvacearum assessed as reduction in bacterial growth; format: functional; parameters: concentration or dose not given beside the values
[10] = test system: Fusarium verticillioides; assay: Antifungal activity against Fusarium verticillioides assessed as reduction in fungal growth; format: functional; parameters: concentration or dose not given beside the values
[11] = test system: Phytophthora; assay: Antimicrobial activity against Phytophthora assessed as reduction in microbial growth; format: functional; parameters: concentration or dose not given beside the values
[12] = test system: Rhizoctonia solani; assay: Antifungal activity against Rhizoctonia solani assessed as reduction in fungal growth; format: functional; parameters: concentration or dose not given beside the values
[13] = test system: Erysiphe necator; assay: Antifungal activity against powdery mildew Erysiphe necator assessed as reduction in fungal growth; format: functional; parameters: concentration or dose not given beside the values
[14] = test system: Botrytis cinerea; assay: Antifungal activity against gray mold Botrytis cinerea assessed as reduction in fungal growth; format: functional; parameters: concentration or dose not given beside the values
[15] = test system: Ehrlich; assay: cells; settings: Mus musculus
Description: Anticancer activity against mouse EAC cells assessed as reduction in cell viability

[16] = test system: Scopulariopsis; assay: Antifungal activity against Scopulariopsis assessed as zone of inhibition at 20 mg/ml; format: functional; settings: read-out: IZ
[17] = test system: Candida albicans; assay: Antifungal activity against Candida albicans assessed as zone of inhibition at 20 mg/ml; format: functional; settings: read-out: IZ
[18] = test system: Trichophyton rubrum; assay: Antifungal activity against Trichophyton rubrum assessed as zone of inhibition at 20 mg/ml; format: functional; settings: read-out: IZ
[19] = test system: Geotrichum candidum; assay: Antifungal activity against Geotrichum candidum assessed as zone of inhibition at 20 mg/ml; format: functional; settings: read-out: IZ
[20] = test system: Fusarium oxysporum; assay: Antifungal activity against Fusarium oxysporum assessed as zone of inhibition at 20 mg/ml; format: functional; settings: read-out: IZ
[21] = test system: Staphylococcus aureus; assay: Antibacterial activity against Staphylococcus aureus assessed as zone of inhibition at 20 mg/ml; format: functional; settings: read-out: IZ
[22] = test system: Serratia marcescens; assay: Antibacterial activity against Serratia marcescens assessed as zone of inhibition at 20 mg/ml; format: functional; settings: read-out: IZ
[23] = test system: Escherichia coli; assay: Antibacterial activity against Escherichia coli assessed as zone of inhibition at 20 mg/ml; format: functional; settings: read-out: IZ
[24] = test system: Aspergillus flavus; assay: Antifungal activity against Aspergillus flavus assessed as zone of inhibition at 20 mg/ml; format: functional; settings: read-out: IZ
[25] = test system: Micrococcus luteus; assay: Antibacterial activity against Micrococcus luteus assessed as zone of inhibition at 20 mg/ml; format: functional; settings: read-out: IZ
[26] = test system: Pseudomonas aeruginosa; assay: Antibacterial activity against Pseudomonas aeruginosa assessed as zone of inhibition at 20 mg/ml; format: functional; settings: read-out: IZ
[27] = test system: Bacillus cereus; assay: Antibacterial activity against Bacillus cereus assessed as zone of inhibition at 20 mg/ml; format: functional; settings: read-out: IZ
[28] = test system: Botrytis cinerea; assay: Antifungal activity against Botrytis cinerea; format: functional, organism-based

CN1CCN(Cc2[se]c3c(=O)oc4ccccc4c3c2Br)CC1
IC50 [1]: 87000 nM

COc1ccc(C2SCCNc3c2c(=O)oc2ccccc32)c(O)c1 (stereo unspecified)
IC50 [1]: 120000 nM

COc1ccc(C2SCCNc3c2c(=O)oc2cc(O)ccc32)c(O)c1 (stereo unspecified)
IC50 [1]: 120000 nM

CC1c2c(c3ccccc3oc2=O)Oc2ncn3nc(CCl)nc3c21 (stereo unspecified)
inhibition zone (IZ) [2]: 18 mm
inhibition zone (IZ) [3]: 19 mm
inhibition zone (IZ) [4]: 20 mm
inhibition zone (IZ) [5]: 20 mm
inhibition zone (IZ) [6]: 22 mm
inhibition zone (IZ) [7]: 21 mm

O=c1oc2ccccc2c2c1C(c1ccc(Cl)cc1)c1c(ncn3nc(CCl)nc13)O2 (stereo unspecified)
inhibition zone (IZ) [2]: 19 mm
inhibition zone (IZ) [3]: 19 mm
inhibition zone (IZ) [4]: 22 mm
inhibition zone (IZ) [5]: 23 mm
inhibition zone (IZ) [6]: 22 mm
inhibition zone (IZ) [7]: 23 mm

COc1ccc2c3c(c(=O)oc2c1)CN(Cc1ccc(F)cc1)CC3
Ki [8]: 1350 nM

COc1ccc2c3c(c(=O)oc2c1)CN(Cc1ccccc1Cl)CC3
Ki [8]: 171 nM

Cc1ccc2c3c(c(=O)oc2c1)C(c1ccccc1)N(C)C(c1ccccc1)C3 (stereo unspecified)
Activity [9]: 0%
Activity [10]: 22%
Activity [11]: 0%
Activity [12]: 15%
Activity [13]: 0%
Activity [14]: 0%

CC1C(C#N)=C(N)Oc2c1c(=O)oc1ccccc21 (stereo unspecified)
inhibition zone (IZ) [2]: 16 mm
inhibition zone (IZ) [3]: 18 mm
inhibition zone (IZ) [4]: 20 mm
inhibition zone (IZ) [5]: 18 mm
inhibition zone (IZ) [6]: 19 mm
inhibition zone (IZ) [7]: 18 mm

O=C1c2ccccc2-c2nc3c(c(-c4ccccc4)c21)c(=O)oc1ccccc13
IC50 [15]: 130 nM

CCOC(=O)c1sc2c(c1NC(=O)CNc1ccc(C)cc1)c(=O)oc1ccccc12
zone of inhibition at 20000 µg/mL [16]: 0 mm
zone of inhibition at 20000 µg/mL [17]: 13 mm
zone of inhibition at 20000 µg/mL [18]: 0 mm
zone of inhibition at 20000 µg/mL [19]: 8 mm
zone of inhibition at 20000 µg/mL [20]: 0 mm
zone of inhibition at 20000 µg/mL [21]: 0 mm
zone of inhibition at 20000 µg/mL [22]: 0 mm
zone of inhibition at 20000 µg/mL [23]: 0 mm
zone of inhibition at 20000 µg/mL [24]: 0 mm
zone of inhibition at 20000 µg/mL [25]: 0 mm
zone of inhibition at 20000 µg/mL [26]: 0 mm
zone of inhibition at 20000 µg/mL [27]: 0 mm

NNC(=O)c1sc2c(c1N)c(=O)oc1ccccc12
zone of inhibition at 20000 µg/mL [16]: 13 mm
zone of inhibition at 20000 µg/mL [17]: 14 mm
zone of inhibition at 20000 µg/mL [18]: 0 mm
zone of inhibition at 20000 µg/mL [19]: 13 mm
zone of inhibition at 20000 µg/mL [20]: 16 mm
zone of inhibition at 20000 µg/mL [21]: 10 mm
zone of inhibition at 20000 µg/mL [22]: 11 mm
zone of inhibition at 20000 µg/mL [23]: 0 mm
zone of inhibition at 20000 µg/mL [24]: 10 mm
zone of inhibition at 20000 µg/mL [25]: 0 mm
zone of inhibition at 20000 µg/mL [26]: 10 mm
zone of inhibition at 20000 µg/mL [27]: 0 mm

CC1(C)S[C@@H]2[C@H](NC(=O)[C@H](N)c3ccccc3)C(=O)N2[C@H]1C(=O)O [AMPICILLIN]
inhibition zone (IZ) [4]: 27 mm
inhibition zone (IZ) [5]: 26 mm
inhibition zone (IZ) [6]: 25 mm
inhibition zone (IZ) [7]: 26 mm

O=c1oc2ccccc2c2nc(/C=C/c3ccccc3)cc(-c3ccccc3)c12
IC50 [15]: 120 nM

CC(=O)N1C(c2ccccc2)Cc2c(c(=O)oc3cc(C)ccc23)C1c1ccccc1 (stereo unspecified)
Activity [9]: 18%
Activity [10]: 10%
Activity [11]: 83%
Activity [12]: 0%
Activity [13]: 52%
Activity [14]: 11%

Cc1ccc2c3c(c(=O)oc2c1)C(c1ccccc1)NC(c1ccccc1)C3 (stereo unspecified)
Activity [9]: 0%
Activity [10]: 20%
Activity [11]: 83%
Activity [12]: 13%
Activity [13]: 38%
Activity [14]: 0%

CCc1cccc(-n2c(N)c(C#N)c3c(c(=O)oc4ccc5ccccc5c43)c2=O)c1
IC50 [15]: 246000 nM

CCOC(=O)c1sc2c(c1NC(=O)CNc1ccccc1)c(=O)oc1ccccc12
zone of inhibition at 20000 µg/mL [16]: 10 mm
zone of inhibition at 20000 µg/mL [17]: 13 mm
zone of inhibition at 20000 µg/mL [18]: 10 mm
zone of inhibition at 20000 µg/mL [19]: 11 mm
zone of inhibition at 20000 µg/mL [20]: 0 mm
zone of inhibition at 20000 µg/mL [21]: 0 mm
zone of inhibition at 20000 µg/mL [22]: 0 mm
zone of inhibition at 20000 µg/mL [23]: 0 mm
zone of inhibition at 20000 µg/mL [24]: 12 mm
zone of inhibition at 20000 µg/mL [25]: 0 mm
zone of inhibition at 20000 µg/mL [26]: 0 mm
zone of inhibition at 20000 µg/mL [27]: 0 mm

CCOC(=O)c1sc2c(c1NC(=O)CCl)c(=O)oc1ccccc12
zone of inhibition at 20000 µg/mL [16]: 0 mm
zone of inhibition at 20000 µg/mL [17]: 10 mm
zone of inhibition at 20000 µg/mL [18]: 0 mm
zone of inhibition at 20000 µg/mL [19]: 0 mm
zone of inhibition at 20000 µg/mL [20]: 0 mm
zone of inhibition at 20000 µg/mL [21]: 8 mm
zone of inhibition at 20000 µg/mL [22]: 0 mm
zone of inhibition at 20000 µg/mL [23]: 0 mm
zone of inhibition at 20000 µg/mL [24]: 0 mm
zone of inhibition at 20000 µg/mL [25]: 0 mm
zone of inhibition at 20000 µg/mL [26]: 0 mm
zone of inhibition at 20000 µg/mL [27]: 0 mm

Cc1ccc2c3c(c(=O)oc2c1)CN(Cc1ccc(F)cc1)CC3
Ki [8]: 773 nM

O=c1[nH]cc(F)c(=O)[nH]1 [FLUOROURACIL]
IC50 [15]: 380 nM

CC1c2c(c3ccccc3oc2=O)Oc2ncn3nc(-c4ccccc4)nc3c21 (stereo unspecified)
inhibition zone (IZ) [2]: 19 mm
inhibition zone (IZ) [3]: 17 mm
inhibition zone (IZ) [4]: 19 mm
inhibition zone (IZ) [5]: 20 mm
inhibition zone (IZ) [6]: 22 mm
inhibition zone (IZ) [7]: 20 mm

CC1C2=C(N=CNC2N)Oc2c1c(=O)oc1ccccc21 (stereo unspecified)
inhibition zone (IZ) [2]: 14 mm
inhibition zone (IZ) [3]: 12 mm
inhibition zone (IZ) [4]: 19 mm
inhibition zone (IZ) [5]: 21 mm
inhibition zone (IZ) [6]: 22 mm
inhibition zone (IZ) [7]: 20 mm

COc1ccc(CN2CCc3c(c(=O)oc4cc(OC)ccc34)C2)cc1
Ki [8]: 69 nM

O=c1oc2c(ccc3ccccc32)c2c1C(c1ccccc1)NC(c1ccccc1)C2 (stereo unspecified)
Activity [9]: 9%
Activity [10]: 18%
Activity [11]: 83%
Activity [12]: 30%
Activity [13]: 68%
Activity [14]: 32%

O=c1oc2ccccc2c2nc3c(c(-c4ccccc4)c12)CCC/C3=C\c1ccccc1
IC50 [15]: 130 nM

COc1ccc2c3c(c(=O)oc2c1)CN(Cc1ccc(Cl)cc1)CC3
Ki [8]: 667 nM

CN1C(c2ccccc2)Cc2c(c(=O)oc3c2ccc2ccccc23)C1c1ccccc1 (stereo unspecified)
Activity [9]: 9%
Activity [10]: 14%
Activity [11]: 0%
Activity [12]: 0%
Activity [13]: 8%
Activity [14]: 0%

CC1c2c(c3ccccc3oc2=O)Oc2ncn(C)c(=N)c21 (stereo unspecified)
inhibition zone (IZ) [2]: 19 mm
inhibition zone (IZ) [3]: 15 mm
inhibition zone (IZ) [4]: 19 mm
inhibition zone (IZ) [5]: 18 mm
inhibition zone (IZ) [6]: 17 mm
inhibition zone (IZ) [7]: 19 mm

COc1ccc2c3c(c(=O)oc2c1)CN(CCc1ccccc1)CC3
Ki [8]: 734 nM

CC(=O)N1C(c2ccccc2)Cc2c(c(=O)oc3c2ccc2ccccc23)C1c1ccccc1 (stereo unspecified)
Activity [9]: 9%
Activity [10]: 6%
Activity [11]: 0%
Activity [12]: 2%
Activity [13]: 0%
Activity [14]: 21%

CCOc1ccc2c(c1)oc(=O)c1c(C)c(C)oc12
EC50 [28]: 1.72 µg/mL (≈ 6.66 µM)

COc1ccc2c3c(c(=O)oc2c1)CN(Cc1ccc(Cl)c(Cl)c1)CC3
Ki [8]: 95 nM

O=c1oc2ccccc2c2nc(-c3ccccc3)cc(-c3ccc([N+](=O)[O-])cc3)c12
IC50 [15]: 120 nM
